Assay results from patent US11458212B2, “Molecular imaging of cancer cells in vivo” (H. Lee Moffitt Cancer Center and Research Institute, Inc., priority 2011, dated 2022).
“Also recorded” adds a separate entry of the source.

Assays:
[1] = target: T1, TLR2 (Homo sapiens, UniProt O60603); test: In cyto europium TRF saturation binding assay; parameters: ATCC (SU.86.86 CRL-1837, Capan-I HTB-79); SU.86.86 and Capan-I express TLR2 endogenously
Procedure: TRF binding assays were performed as previously described (see Xu, L., et al. Mol Cancer Ther. 2009 8(8):2356-65).
Europium TRF binding assays were performed as previously described with slight modifications using 3 cell lines that express TLR2: HEK-293/hTLR2, SU.86.86, and Capan-I.[23a, 23d, 29] The Capan-I and SU.86.86 cells were plated in 96-well black plates with white opaque wells (PerkinElmer); while the HEK-293/hTLR2 cells were plated on 96-well poly-D-lysine coated plates (Sigma-Aldrich) to aid in the attachment of these cells to the plate. Cells were grown in the 96-well plates for 2 days reaching approximately 80% confluency. Both types of plates were evaluated for nonspecific binding and background signal.
For saturation binding, increased concentrations of the labeled ligand, compound 11 (Table 8), were used to determine total binding to TLR2. Non-specific binding was determined in the presence of 1 μM Pam2CSK4. On the day of the experiment the medium was aspirated. 50 μL of binding buffer was added to the total binding wells and 50 μL of Pam2CSK4 was added to the non-specific wells and then allowed to incubate for 30 m at 37° C. Next, 50 μL of the serial dilutions of […] were added and then allowed to incubate for 1 h at 37° C. Cells were washed three times to remove unbound ligand. Next, 100 μL of DELFIA Enhancement Solution (PerkinElmer) was added to each well. Cells were incubated for 30 min at 37° C. prior to reading. The plates were read on the VICTOR X4 Multilabel plate reader using the standard europium TRF protocol (340 nm excitation, […] and […] collection at 615 nm). To determine the mean Kd, statistical analysis was performed using GraphPad Prism software.
Target sequence in this assay (O60603 21-784): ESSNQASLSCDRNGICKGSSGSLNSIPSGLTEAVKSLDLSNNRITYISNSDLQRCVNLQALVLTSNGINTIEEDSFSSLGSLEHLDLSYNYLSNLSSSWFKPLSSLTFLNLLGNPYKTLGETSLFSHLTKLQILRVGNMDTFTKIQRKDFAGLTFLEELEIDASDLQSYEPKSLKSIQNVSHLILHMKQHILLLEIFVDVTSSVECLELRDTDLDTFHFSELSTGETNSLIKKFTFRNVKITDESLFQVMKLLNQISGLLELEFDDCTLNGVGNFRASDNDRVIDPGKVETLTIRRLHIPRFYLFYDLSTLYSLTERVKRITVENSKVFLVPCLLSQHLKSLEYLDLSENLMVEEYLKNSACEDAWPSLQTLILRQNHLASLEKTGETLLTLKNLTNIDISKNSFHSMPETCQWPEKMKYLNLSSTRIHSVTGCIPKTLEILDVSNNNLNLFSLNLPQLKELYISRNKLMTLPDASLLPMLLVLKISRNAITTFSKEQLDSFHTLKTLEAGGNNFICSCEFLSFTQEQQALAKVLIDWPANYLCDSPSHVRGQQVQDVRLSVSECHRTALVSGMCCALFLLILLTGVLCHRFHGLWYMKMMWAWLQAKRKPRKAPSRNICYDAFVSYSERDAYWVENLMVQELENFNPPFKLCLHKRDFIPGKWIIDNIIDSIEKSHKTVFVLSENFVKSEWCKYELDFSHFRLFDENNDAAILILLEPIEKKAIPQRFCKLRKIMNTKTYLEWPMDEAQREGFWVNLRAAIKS
Target sequence in this assay (Q9Y2C9 32-796 partner): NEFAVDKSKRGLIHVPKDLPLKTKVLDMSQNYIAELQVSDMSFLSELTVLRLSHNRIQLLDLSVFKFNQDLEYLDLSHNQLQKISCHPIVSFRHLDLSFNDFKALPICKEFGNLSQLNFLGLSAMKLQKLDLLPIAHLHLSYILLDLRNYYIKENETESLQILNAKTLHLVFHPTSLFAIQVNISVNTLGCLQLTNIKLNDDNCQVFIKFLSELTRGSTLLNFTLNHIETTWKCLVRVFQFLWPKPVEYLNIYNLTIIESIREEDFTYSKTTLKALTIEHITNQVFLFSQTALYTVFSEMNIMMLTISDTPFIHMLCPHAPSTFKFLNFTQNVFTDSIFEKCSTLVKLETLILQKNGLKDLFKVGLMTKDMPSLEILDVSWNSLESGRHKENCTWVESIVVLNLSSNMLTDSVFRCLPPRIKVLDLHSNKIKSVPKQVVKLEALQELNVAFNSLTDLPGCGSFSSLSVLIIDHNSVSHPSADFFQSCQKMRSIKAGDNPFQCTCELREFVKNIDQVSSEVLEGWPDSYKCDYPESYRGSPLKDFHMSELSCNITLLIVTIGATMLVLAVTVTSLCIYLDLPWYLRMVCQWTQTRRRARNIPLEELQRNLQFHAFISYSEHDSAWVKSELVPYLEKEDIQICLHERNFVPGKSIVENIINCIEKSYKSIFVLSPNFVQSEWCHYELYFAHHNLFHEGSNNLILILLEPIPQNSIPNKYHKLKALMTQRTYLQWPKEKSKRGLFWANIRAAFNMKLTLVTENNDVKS

[2] = target: T1, TLR2; test: In vitro TLR2 functional bioassay (NF-κB luciferase, HEK293/hTLR2 cells); type: cell-based; parameters: host or cells: HEK293 stably transfected with pUNO-hTLR2, transiently transfected with the pNifty-Luc reporter
From the text: In Vitro TLR2 Functional Bioassay The in vitro TLR2 functional bioassay was developed and optimized for use in screening soluble compound libraries to identify both TLR2 agonists and antagonists. In this study, the TLR2 functional bioassay was used as a fast high throughput screening to identify TLR2 agonist ligands by measuring the inducing activity of NF-κB. HEK293/hTLR2 cells, highly overexpressing human TLR2, were used along with the parental HEK293, cells as a negative control. Cells were seeded at a density of 40,000 per well using a WellMate® Microplate dispenser (Thermo Fischer Scientific/Matrix) in black 96-well plates with opaque white wells (Perkin Elmer Wallac, Waltham, Mass.) and then incubated at 37° C. On day 2, the cells were transiently transfected with pNifty-Luc (InvivoGen), an NF-κB inducible reporter plasmid expressing the luciferase reporter gene (Zuany-Amorim, C., J., et al. Nat Rev Drug Discov, 2002. 1(10):797-807), using an optimized 4:1 ratio by volume of Fugene® HD Transfection Reagent (Roche Applied Science, Indianapolis, Ind.) to pNifty-Luc plasmid DNA (1 μg/mL). […] On day 4 after 24 hrs of peptide stimulation, luciferase induced activity by the induction of NF-κB was measured. Media was aspirated from the wells using an ELx405 Select plate washer (BioTek, Winooski, Vt.), 150 μg/mL D-luciferin (Gold Biotechnology, St. Louis, Mo.) was dispensed using the microplate dispensor; the plates were incubated at 37° C. for 5 min. The luminescence intensity was measured using the standard luminescence protocol on a Victor™ X4 plate-reader equipped with a plate stacker for readout of multiple plates at a time (PerkinElmer, Waltham, Mass.). For each in vitro TLR2 bioassay, at least three different experiments were performed in triplicate (n=3+). Data were analyzed with GraphPad Prism software and curves were generated with the appropriate nonlinear fit regression analysis.
The in vitro TLR2 functional bioassay was developed and optimized for use in high-throughput screening of soluble compound libraries to identify both TLR2 agonists and antagonists. The bioassay measures the induction of NF-κB signaling via TLR2 in HEK-293/hTLR2 cells and parental HEK-293 cells as a negative control. Cells were seeded at a density of 40,000 per well using a WellMate Microplate dispenser (Thermo Fisher Scientific/Matrix) in black 96-well plates with opaque white wells (PerkinElmer, Waltham, Mass.) and then incubated at 37° C. On day 2, the cells were transiently transfected with pNifty-Luc (InvivoGen, San Diego, Calif.), an NF-κB inducible reporter plasmid expressing the luciferase reporter gene[28] using an optimized 4:1 ratio by volume of FugeneHD Transfection Reagent (Promega, Madison, Wis.) to pNifty-Luc plasmid DNA (1 μg/mL). […] […] On day 4 after 24 h of peptide stimulation, luciferase induced activity by the induction of NF-κB was measured. Media was aspirated from the wells using an ELx405 Select CW plate washer (BioTek, Winooski, Vt.), 150 μg/mL D-luciferin (Gold Biotechnology, St. Louis, Mo.) was dispensed using the microplate dispensor; the plates were incubated at 37° C. for 5 min. The luminescence intensity was measured using the standard luminescence protocol on a Victor X4 Multilabel plate reader equipped with a plate stacker for readout of multiple plates at a time (PerkinElmer, Waltham, Mass.). […] Data were analyzed with GraphPad Prism software and curves were generated with the appropriate nonlinear fit regression analysis.
Target sequence in this assay (O60603 21-784): as the sequence (O60603 21-784) above
Target sequence in this assay (Q9Y2C9 32-796 partner): as the sequence (Q9Y2C9 32-796 partner) above

[3] = tested on: TLR2 expressing tumor xenografts (SU.86.86 cells); test: In vivo TLR2 selectivity / tumor retention fluorescence imaging; parameters: species or system nude mice; conditions: for retention of fluorescence signal in tumor: 24 h post injection
Procedure: Female athymic nude mice 6-8 weeks old (Harlan) bearing human pancreatic tumor xenografts consisting of SU.86.86 cells on the right flank were used for this study. Mouse weights and tumor volumes were determined using caliper measurements and the formula: volume (mm3)=(length×width^2)/2. Images were acquired when the tumors reached an average size of 500 mm^3. For the blocked group, a co-injection of 100 nmol/kg of the fluorescently labeled compound 13 plus 2 μmol/kg Pam2CSK4 (a 20-fold excess) was administered via tail vein injection; for the unblocked group, 100 nmol/kg 13 was administered. Fluorescence images were acquired at time 0 and 24 h using the Caliper Xenogen IVIS200 system (PerkinElmer) with the 710-760 nm excitation and 810-875 nm emission filter set. The fluorescence was quantified using Living Image software, in which the quantified signals were corrected for both instrument and mouse background subtractions. The quantified fluorescence was then plotted using GraphPad Prism software and underwent statistical analysis using Student's t-test.
For further confirmation of ligand 13 specificity for TLR2, ex vivo fluorescence imaging and histological analyses were performed on the tumors. For histological analyses the samples were fixed in 10% formalin solution, processed, embedded, sectioned and either H&E stained for the presence of tumor or underwent IHC staining using TLR2 antibody (Abcam #ab24192).

[4] = tested on: orthotopic pancreatic tumors; test: FL guided intraoperative surgical removal of orthotopic pancreatic tumors; type: in vivo, mice; conditions: 24 h post-injection, data not shown
From the text: Improved survival rates for pancreatic cancer are associated with the complete surgical resection of tumor resulting in a tumor-free margin (R0). New methods employing intraoperative fluorescence (FL) guided tumor detection could lead to increased R0 margins and improved survival. We have reported Toll-like receptor 2 (TLR2) as a bona fide cell-surface marker for pancreatic adenocarcinoma. We then developed a high-affinity TLR2 binding ligand conjugated to a near-infrared (NIR) fluorescent dye, IR800CW, as a targeted molecular imaging probe for the intraoperative detection of surgical margins. To evaluate the in vivo pharmacokinetics and biodistribution of compound 13, FL imaging was performed on multiple optical imaging systems (PerkinElmer IVIS 200 and FMT2500XL, and ART Optix MX3) using TLR2 expressing pancreatic tumor xenograft mouse models (subcutaneous and orthotopic). […] Prior to surgery, the orthotopic pancreatic tumor volumes were monitored weekly and measured in vivo by 3D ultrasound imaging. […]

[5] = tested on: TLR2 expressing tumor xenografts (SU.86.86 cells); test: In vivo TLR2 selectivity / tumor retention fluorescence imaging; parameters: species or system nude mice
[6] = target: T1, TLR2; test: In cyto europium TRF competition binding assay; parameters: ATCC (SU.86.86 CRL-1837, Capan-I HTB-79); SU.86.86 and Capan-I express TLR2 endogenously
Target sequence in this assay (O60603 21-784): as the sequence (O60603 21-784) above
Target sequence in this assay (Q9Y2C9 32-796 partner): as the sequence (Q9Y2C9 32-796 partner) above
Procedure: Competition binding assays were performed to test the TLR2 binding specificity of the test ligands using 2 cell lines: HEK-293/hTLR2 and SU.86.86. Cells were grown in 96-well plates for 2 days reaching approximately 80% confluency. On the day of the experiment, the cell culture media was aspirated and 50 μL of non-labeled test ligand was added in a series of decreasing concentrations (1 μM to 0.01 nM) followed by 50 μL of the competing Eu-labeled ligand 10 at a fixed concentration of 90 nM. Cells were incubated with labeled and unlabeled ligands for 1 h at 37° C. […] Cells were incubated for 30 min at 37° C. prior to reading. The plates were read on PerkinElmer VICTOR X4 Multilabel reader using the standard europium TRF protocol. […]

[7] = target: T1, TLR2; conditions: 95° C. for 30 min; cited from earlier work
Target sequence in this assay (O60603 21-784, species assumed): as the sequence (O60603 21-784) above

## CCCCCCCCCCCCCCCC(=O)OC[C@H](CSC[C@H](NC(=O)COCC(=O)NCCCOCCOCCOCCCNC(=O)CN(CCN(CCN(CC(=O)O)CC(=O)O)CC(=O)O)CC(=O)O)C(=O)NCC(=O)N[C@H](CO)C(=O)NCCCOCCOCCOCCCNC(=O)COCC(N)=O)OC(=O)CCCCCCCCCCCCCCC [Compound 11]
[1]; Capan-I cells
  Bmax: 951,170 AFU
[1]; HEK-293/hTLR2 cells
  Bmax: 114,271 AFU
[1]; SU.86.86 cells
  Bmax: 269,878 AFU
[1]; cell line not stated
  Kd: 0.03 µM
[2]
  decrease in potency compared to 10: 10 fold

## CCCCCCCCCCCCCCCC(=O)OC[C@H](CSC[C@H](NC(=O)COCC(=O)NCCCOCCOCCOCCCNC(=O)CCSC1CC(=O)N(CCNC(=O)CCCCC[N+]2=C(/C=C/C3=C(Oc4ccc(S(=O)(=O)[O-])cc4)C(=C/C=C4/N(CCCCS(=O)(=O)O)c5ccc(S(=O)(=O)O)cc5C4(C)C)/CCC3)C(C)(C)c3cc(S(=O)(=O)O)ccc32)C1=O)C(=O)NCC(=O)N[C@H](CO)C(=O)NCCCOCCOCCOCCCNC(=O)COCC(N)=O)OC(=O)CCCCCCCCCCCCCCC (stereo partly drawn) [Compound 13, IRDye800CW-Mpr-PEGO-Cys(S-[2,3-bis(palmitoyl)oxy-(R)-propyl])-Gly-DSer-PEGO-NH2]
[3]; 24 h, 100 nmol/kg 13 ± 2 μmol/kg Pam2CSK4 (20-fold excess), n=8
  mean tumor fluorescence unblocked / blocked: 1.94 fold
[3]; 24 h, p<0.001
  effect of blocking with excess unlabeled ligand on tumor signal: significantly decreased FL signal in the tumor; also recorded: significant reduction in the tumor fluorescence
[3]
  retention of fluorescence signal in tumor: Fluorescence signal was present in TLR2 expressing pancreatic tumor xenografts; also recorded: retention of fluorescence signal in the tumor
[3]; listed as LiCor IRDye800CW/T-02 conjugate
  retention of fluorescence signal in tumor: retained in the tumor at 24 h post injection while the agent had cleared from the animal except for the kidneys
[4]
  intraoperative fluorescence detection of tumor: intraoperative detection of pancreatic cancer were demonstrated
[5]; 10 nmol/Kg dosage
  duration of retention in the SU.86.86 tumor: over 96 h
[5]; mouse, in vivo
  clearance from the kidney: cleared from the kidney within days of the injection but was retained longer in the tumor
[5]; orthotopic
  uptake in orthotopic pancreatic tumor xenografts: taken into and retained in orthotopic pancreatic tumor xenografts
[5]; post-injection, dose not stated
  duration of FL signal retention in TLR2 expressing tumor xenografts: up to 96 h
[6]; SU.86.86 cells, 90 nM compound 11
  Ki: 0.067 µM
[6]; competitive binding assay, cell line not stated
  Ki: 0.011 µM
[2]; dose-response 0.001 ng/mL to 10 μg/mL, read-out: TLR2 Agonist Activity EC50
  EC50: 0.034 µM

B1: SAA: recombinant human Apo-SAA1 (Peprotech) derived from E. coli; serum amyloid A, acute-phase protein, TLR2 agonist (protein)
chain: MRSFFSFLGEAFDGARDMWRAYSDMREANYIGSDKYFHARGNYDAAKRGPGGVWAAEAISDRENIQRFFGHGAEDSLADQAANEWGRSGKDPNHFRPAGLPEKY
[7]
  loss of activity of heat-treated SAA: 95%
[2]; 1 μg/mL, SAA at 1 and 10 μg/mL
  NF-κB induced luciferase activity (luminescence) in screening: low potency
